Test results reported in patent publication US20160363588A1, “URINE SAMPLE ANALYSIS METHOD AND REAGENT KIT FOR URINE SAMPLE ANALYSIS” (SYSMEX CORPORATION, priority 2014, published 2016).

Tests used:
Pseudomonas aeruginosa = conditions: P. aeruginosa, 1000 ppm acetic acid aqueous solution
Experimental: (§1) In this example, the antimicrobial activity of acetic acid against various bacteria was evaluated. As a control, a saline was used. The antimicrobial activity was evaluated on the basis of the number of colonies of the bacterium on the solid culture medium.
(§2) To each of an acetic acid aqueous solution and a saline, various species of bacteria were added to a concentration of 1×10^5 cells/mL to obtain bacterial suspensions. Each 100 μL was taken from the obtained bacterial suspensions, and these were taken as samples at day 0 of culture. The remaining bacterial suspensions were cultured for 7 days at 37° C. for E. coli and S. aureus and at 25° C. for P. aeruginosa, and each 100 μL was taken from the obtained bacterial suspensions as samples at day 7 of culture. Each 100 μL of the sample was coated on a heart infusion agar culture medium, and cultured at the respective culture temperatures. The culture time was 20 hours for E. coli, 24 hours for S. aureus and 48 hours for P. aeruginosa. After culturing, the number of colonies on the agar culture medium was counted, and the bacterial number (CFU/mL) was calculated.

Staphylococcus aureus = conditions: S. aureus, 1000 ppm acetic acid aqueous solution
Experimental: as §1, §2

Escherichia coli = conditions: E. coli, 1000 ppm acetic acid aqueous solution
Experimental: as §1, §2

## CC(=O)O [acetic acid]
Pseudomonas aeruginosa; cultured 7 days at 25° C.
  Bacterial number At day 7: 0 CFU/mL
Pseudomonas aeruginosa; culturing for 7 days
  proliferation of bacteria in the solution: cannot be proliferated
Pseudomonas aeruginosa; day 0 of culture
  Bacterial number At day 0: 1000 CFU/mL
Staphylococcus aureus; cultured 7 days at 37° C.
  Bacterial number At day 7: 0 CFU/mL
Staphylococcus aureus; culturing for 7 days
  proliferation of bacteria in the solution: cannot be proliferated
Staphylococcus aureus; day 0 of culture
  Bacterial number At day 0: 1000 CFU/mL
Escherichia coli; cultured 7 days at 37° C.
  Bacterial number At day 7: 0 CFU/mL
Escherichia coli; culturing for 7 days
  proliferation of bacteria in the solution: cannot be proliferated
Escherichia coli; day 0 of culture
  Bacterial number At day 0: 1000 CFU/mL
